Where no end group is shown, it is not given here.
What was measured:
[1] = in vitro; assay type: cell-based; conditions: human; 24h and 48h of exposure; MTT and resazurin; MM6, HEK293, HaCaT, HeLa, HT-29; read-out: cytotoxicity (viability), concentration
Protocol: (§1) Cytotoxicity assays were conducted on 5 different mammalian cell lines after 24h and 48h of exposure to the various compounds, using the colorimetric tetrazolium dye MTT and the fluorometric resazurin (Alamar Blue): MM6 (human cell line with characteristics of mature monocytes), HEK293 (human embryonic kidney cells), HaCaT (human keratinocyte cell line), HeLa (human cervical cancer cell line) and HT-29 (human colon cancer cell line).

[2] = system: Hsp90; conditions: upon Hsp90 inhibition (Taiyab & Rao Ch, 2011); cited from earlier work
[3] = system: MM6, HEK293, HaCaT, HeLa and HT-29; assay: Cytotoxicity assays (MTT and resazurin/Alamar Blue) on 5 mammalian cell lines; assay type: cell-based, human; conditions: 24h and 48h of exposure
Protocol: as §1

[4] = system: S. aureus; assay: Septic arthritis mouse model (mouse sepsis model); assay type: in vivo; conditions: mice treated with L15
Protocol: (§2) The figures show: • Figure 1: Extent of sequence homology of the nine Lpl proteins encoded by the lpl operon in S. aureus USA300. […] LSP, leader signal peptide. Total length without LSP is 267 aa. We have chosen Lpli as a prototype of Lpl proteins for further studies. • Figure 2: L13 and L15 inhibit S. aureus internalization by HaCaT cells and N/TERT1 cells. N/TERT-1 are immortalized human keratinocytes. L15 was used at 20 µM), L13 at 30 µM and geldanamycin at 5 µM. SNC1 is representative for the many peptides that had no effect • Figure 3: Alignment of Lpl protein homologs. (A) Multiple sequence alignment of Lpls generated by using SnapGene software. Amino acids that match the Lpli sequence are highlighted in yellow. […] A therapeutic model (treatment at intervals post-infection) is already envisaged in the course of this project. • Figure 5: Quantification of the secreted cytokine IL-23 after stimulation of peripheral blood mononuclear cells of different donors with various cell wall components of Staphylococcus aureus. […] The measured IL-23 concentrations are depicted in pg/ml ± standard error of mean (SEM). • Figure 6: Prediction of Lpli structure and localization of L15 (top row, binding area indicated by white arrows) and L13 (bottom row, binding area indicated by white arrows) in Lpli. […]

[5] = system: peripheral blood mononuclear cells (PBMCs); assay: Cytokine production by stimulated peripheral blood mononuclear cells (LegendPlex-Kits); assay type: cell-based; conditions: PBMCs from different donors; MDP 20 µg/ml, others 6 and 30 µg/ml
Protocol: as §2

[6] = Solubility remark; assay type: physicochemical; conditions: compared with L15; reason why only L15 was used in mice

COC1=C2C[C@@H](C)C[C@H](OC)[C@H](O)[C@@H](C)/C=C(\C)[C@H](OC(N)=O)[C@@H](OC)/C=C\C=C(/C)C(=O)NC(=CC1=O)C2=O [geldanamycin]
MCC [1]: ≤ 10 µM

C=CCNC1=C2C[C@@H](C)C[C@H](OC)[C@H](O)[C@@H](C)/C=C(\C)[C@H](OC(N)=O)[C@@H](OC)/C=C\C=C(/C)C(=O)NC(=CC1=O)C2=O [Peptide 17AAG, 17AAG]
F-actin formation [2]: decreased

TAKGHYFVTTFYRNG [Peptide L15, TAKGHYFVTTFYRNG]
cytotoxicity (viability), concentration [3]: > 100 µM | behaviour of treated mice (side observation) [4]: hyperactive

CC(=O)N[C@H]1C(O)O[C@H](CO)[C@@H](O)[C@@H]1O[C@H](C)C(=O)N[C@@H](C)C(=O)N[C@H](CCC(=O)O)C(N)=O (mixture of isomers) [Muramyl Dipeptide (MDP), Muramyl Dipeptide]
levels of TNF, IL-1β, IL-6 or IL-10 induced [5]: high levels

GHYFVTTFY [Peptide L13, GHYFVTTFY]
cytotoxicity (viability), concentration [3]: > 100 µM | solubility [6]: less soluble
